From ChEMBL document CHEMBL1697781, “Assessment of the health effects of chemicals in humans: II. Construction of an adverse effects database for QSAR modeling” (Curr Drug Discov Technol, 2004)

Assays:
Details in all cases: human; call rule not given here
[1] = test system: Hepatotoxicity; experiment: FDA HLAED, gamma-glutamyl transferase (GGT) increase
[2] = test system: Hepatotoxicity; experiment: FDA HLAED, lactate dehydrogenase (LDH) increase
[3] = test system: Hepatotoxicity; experiment: FDA HLAED, alkaline phosphatase increase
[4] = test system: Hepatotoxicity; experiment: FDA HLAED, liver enzyme composite activity
[5] = test system: Hepatotoxicity; experiment: FDA HLAED, serum glutamic oxaloacetic transaminase (SGOT) increase
[6] = test system: Hepatotoxicity; experiment: FDA HLAED, serum glutamic pyruvic transaminase (SGPT) increase
Throughout, for GGT Increase - Index Value: reference of the scale not given here.
Throughout, for LDH Increase - Index Value: reference of the scale not given here.

For Fc1ccc([C@@H]2CCNC[C@H]2COc2ccc3c(c2)OCO3)cc1 [PAROXETINE], which “GGT Increase - Activity Score” value [1] is on record?
Its value is “Inactive”.

And the “GGT Increase - Index Value” [1]?
Its value is 0.5.

And the “GGT Increase - Number of Reports” value [1]?
The value was “>= 4”.

And the “LDH Increase - Activity Score” value [2]?
The value was “Inactive”.

What about the “LDH Increase - Index Value” [2] of the same compound?
Its value is 0.4.

What about the “LDH Increase - Number of Reports” value [2] of the same compound?
Its value is “>= 4”.

What about the “Alkaline Phosphatase Increase - Activity Score” value [3] of the same compound?
Its value is “Inactive”.

What about the “Alkaline Phosphatase Increase - Index Value” [3] of the same compound?
Its value is 0.7.

What about the “Alkaline Phosphatase Increase - Number of Reports” value [3] of the same compound?
The value was “>= 4”.

And the “Composite Activity - Active” value [4]?
The value was 0.

What about the “Composite Activity - Marginal” value [4] of the same compound?
Its value is 0.

What about the “Composite Activity - Score” value [4] of the same compound?
Its value is “Inactive”.

What about the “SGOT Increase - Activity Score” value [5] of the same compound?
The value was “Inactive”.

And the “SGOT Increase - Index Value” [5]?
Its value is 1.2.

What about the “SGOT Increase - Number of Reports” value [5] of the same compound?
The value was “>= 4”.

What about the “SGPT Increase - Activity Score” value [6] of the same compound?
The value was “Inactive”.

And the “SGPT Increase - Index Value” [6]?
The value was 1.

What about the “SGPT Increase - Number of Reports” value [6] of the same compound?
Its value is “>= 4”.

Which results are given for CC(C)(C)NC[C@H](O)COc1ccccc1C1CCCC1 [PENBUTOLOL]?
GGT Increase - Activity Score [1]: Inactive; GGT Increase - Index Value [1]: 0; GGT Increase - Number of Reports [1]: < 4; LDH Increase - Activity Score [2]: Inactive; LDH Increase - Index Value [2]: 0; LDH Increase - Number of Reports [2]: < 4; Alkaline Phosphatase Increase - Activity Score [3]: Inactive; Alkaline Phosphatase Increase - Index Value [3]: 0; Alkaline Phosphatase Increase - Number of Reports [3]: < 4; Composite Activity - Active [4]: 0; Composite Activity - Marginal [4]: 0; Composite Activity - Score [4]: Inactive; SGOT Increase - Activity Score [5]: Inactive; SGOT Increase - Index Value [5]: 0; SGOT Increase - Number of Reports [5]: < 4; SGPT Increase - Activity Score [6]: Inactive; SGPT Increase - Index Value [6]: 0; SGPT Increase - Number of Reports [6]: < 4

Which “GGT Increase - Activity Score” value [1] does the source give for Nc1nc2c(ncn2CCC(CO)CO)c(=O)[nH]1 [PENCICLOVIR] here?
The value was “Inactive”.

And the “GGT Increase - Index Value” [1]?
Its value is 0.

What about the “GGT Increase - Number of Reports” value [1] of the same compound?
Its value is under 4.

And the “LDH Increase - Activity Score” value [2]?
Its value is “Inactive”.

And the “LDH Increase - Index Value” [2]?
Its value is 0.

What about the “LDH Increase - Number of Reports” value [2] of the same compound?
Its value is under 4.

What about the “Alkaline Phosphatase Increase - Activity Score” value [3] of the same compound?
Its value is “Inactive”.

What about the “Alkaline Phosphatase Increase - Index Value” [3] of the same compound?
Its value is 0.

What about the “Alkaline Phosphatase Increase - Number of Reports” value [3] of the same compound?
Its value is under 4.

What about the “Composite Activity - Active” value [4] of the same compound?
Its value is 0.

What about the “Composite Activity - Marginal” value [4] of the same compound?
The value was 0.

And the “Composite Activity - Score” value [4]?
Its value is “Inactive”.

What about the “SGOT Increase - Activity Score” value [5] of the same compound?
Its value is “Inactive”.

And the “SGOT Increase - Index Value” [5]?
Its value is 0.

And the “SGOT Increase - Number of Reports” value [5]?
The value was under 4.

And the “SGPT Increase - Activity Score” value [6]?
Its value is “Inactive”.

And the “SGPT Increase - Index Value” [6]?
Its value is 0.

What about the “SGPT Increase - Number of Reports” value [6] of the same compound?
The value was under 4.

Which results are given for N=C(N)c1ccc(OCCCCCOc2ccc(C(=N)N)cc2)cc1 [PENTAMIDINE]?
GGT Increase - Activity Score [1]: Inactive; GGT Increase - Index Value [1]: 0; GGT Increase - Number of Reports [1]: < 4; LDH Increase - Activity Score [2]: Inactive; LDH Increase - Index Value [2]: 5.7; LDH Increase - Number of Reports [2]: < 4; Alkaline Phosphatase Increase - Activity Score [3]: Inactive; Alkaline Phosphatase Increase - Index Value [3]: 11.5; Alkaline Phosphatase Increase - Number of Reports [3]: < 4; Composite Activity - Active [4]: 0; Composite Activity - Marginal [4]: 0; Composite Activity - Score [4]: Inactive; SGOT Increase - Activity Score [5]: Inactive; SGOT Increase - Index Value [5]: 5.7; SGOT Increase - Number of Reports [5]: < 4; SGPT Increase - Activity Score [6]: Inactive; SGPT Increase - Index Value [6]: 5.7; SGPT Increase - Number of Reports [6]: < 4

How did the “GGT Increase - Activity Score” value [1] turn out when OC[C@H]1O[C@@H](n2cnc3c2NC=NC[C@H]3O)C[C@@H]1O [PENTOSTATIN] was run?
The value was “Inactive”.

And the “GGT Increase - Index Value” [1]?
Its value is 0.

And the “GGT Increase - Number of Reports” value [1]?
The value was under 4.

What about the “LDH Increase - Activity Score” value [2] of the same compound?
Its value is “Inactive”.

What about the “LDH Increase - Index Value” [2] of the same compound?
Its value is 0.

What about the “LDH Increase - Number of Reports” value [2] of the same compound?
Its value is under 4.

And the “Alkaline Phosphatase Increase - Activity Score” value [3]?
The value was “Inactive”.

And the “Alkaline Phosphatase Increase - Index Value” [3]?
The value was 0.

And the “Alkaline Phosphatase Increase - Number of Reports” value [3]?
The value was under 4.

And the “Composite Activity - Active” value [4]?
The value was 0.

And the “Composite Activity - Marginal” value [4]?
Its value is 0.

What about the “Composite Activity - Score” value [4] of the same compound?
The value was “Inactive”.

And the “SGOT Increase - Activity Score” value [5]?
Its value is “Inactive”.

What about the “SGOT Increase - Index Value” [5] of the same compound?
Its value is 0.

What about the “SGOT Increase - Number of Reports” value [5] of the same compound?
The value was under 4.

What about the “SGPT Increase - Activity Score” value [6] of the same compound?
Its value is “Inactive”.

What about the “SGPT Increase - Index Value” [6] of the same compound?
The value was 0.

What about the “SGPT Increase - Number of Reports” value [6] of the same compound?
The value was under 4.

CC(=O)CCCCn1c(=O)c2c(ncn2C)n(C)c1=O [PENTOXIFYLLINE] was tested. Which “GGT Increase - Activity Score” value [1] did it give?
The value was “Inactive”.

And the “GGT Increase - Index Value” [1]?
The value was 0.

And the “GGT Increase - Number of Reports” value [1]?
The value was under 4.

And the “LDH Increase - Activity Score” value [2]?
The value was “Inactive”.

What about the “LDH Increase - Index Value” [2] of the same compound?
The value was 0.6.

And the “LDH Increase - Number of Reports” value [2]?
Its value is “>= 4”.

And the “Alkaline Phosphatase Increase - Activity Score” value [3]?
The value was “Inactive”.

And the “Alkaline Phosphatase Increase - Index Value” [3]?
The value was 1.

And the “Alkaline Phosphatase Increase - Number of Reports” value [3]?
The value was “>= 4”.

And the “Composite Activity - Active” value [4]?
The value was 0.

What about the “Composite Activity - Marginal” value [4] of the same compound?
Its value is 0.

And the “Composite Activity - Score” value [4]?
The value was “Inactive”.

What about the “SGOT Increase - Activity Score” value [5] of the same compound?
Its value is “Inactive”.

What about the “SGOT Increase - Index Value” [5] of the same compound?
Its value is 0.9.

What about the “SGOT Increase - Number of Reports” value [5] of the same compound?
Its value is “>= 4”.

What about the “SGPT Increase - Activity Score” value [6] of the same compound?
The value was “Inactive”.

And the “SGPT Increase - Index Value” [6]?
The value was 0.3.

What about the “SGPT Increase - Number of Reports” value [6] of the same compound?
Its value is under 4.

Which results are given for CCCN1C[C@H](CSC)C[C@@H]2c3cccc4[nH]cc(c34)C[C@H]21 [PERGOLIDE]?
GGT Increase - Activity Score [1]: Inactive; GGT Increase - Index Value [1]: 0; GGT Increase - Number of Reports [1]: < 4; LDH Increase - Activity Score [2]: Inactive; LDH Increase - Index Value [2]: 0; LDH Increase - Number of Reports [2]: < 4; Alkaline Phosphatase Increase - Activity Score [3]: Inactive; Alkaline Phosphatase Increase - Index Value [3]: 1.3; Alkaline Phosphatase Increase - Number of Reports [3]: < 4; Composite Activity - Active [4]: 0; Composite Activity - Marginal [4]: 0; Composite Activity - Score [4]: Inactive; SGOT Increase - Activity Score [5]: Inactive; SGOT Increase - Index Value [5]: 3.9; SGOT Increase - Number of Reports [5]: < 4; SGPT Increase - Activity Score [6]: Inactive; SGPT Increase - Index Value [6]: 3.9; SGPT Increase - Number of Reports [6]: < 4

How did the “GGT Increase - Activity Score” value [1] turn out when CC1(C)C(C=C(Cl)Cl)C1C(=O)OCc1cccc(Oc2ccccc2)c1 (configuration not stated) [PERMETHRIN] was run?
The value was “Inactive”.

And the “GGT Increase - Index Value” [1]?
The value was 0.

What about the “GGT Increase - Number of Reports” value [1] of the same compound?
Its value is under 4.

What about the “LDH Increase - Activity Score” value [2] of the same compound?
The value was “Inactive”.

What about the “LDH Increase - Index Value” [2] of the same compound?
Its value is 0.

What about the “LDH Increase - Number of Reports” value [2] of the same compound?
The value was under 4.

And the “Alkaline Phosphatase Increase - Activity Score” value [3]?
Its value is “Inactive”.

What about the “Alkaline Phosphatase Increase - Index Value” [3] of the same compound?
The value was 0.

And the “Alkaline Phosphatase Increase - Number of Reports” value [3]?
The value was under 4.

What about the “Composite Activity - Active” value [4] of the same compound?
The value was 0.

What about the “Composite Activity - Marginal” value [4] of the same compound?
The value was 0.

What about the “Composite Activity - Score” value [4] of the same compound?
Its value is “Inactive”.

What about the “SGOT Increase - Activity Score” value [5] of the same compound?
Its value is “Inactive”.

What about the “SGOT Increase - Index Value” [5] of the same compound?
Its value is 0.

And the “SGOT Increase - Number of Reports” value [5]?
The value was under 4.

And the “SGPT Increase - Activity Score” value [6]?
Its value is “Inactive”.

And the “SGPT Increase - Index Value” [6]?
The value was 0.

And the “SGPT Increase - Number of Reports” value [6]?
The value was under 4.

Which results are given for CC[C@@H]1C(=O)OC[C@@H]1Cc1cncn1C [PILOCARPINE]?
GGT Increase - Activity Score [1]: Inactive; GGT Increase - Index Value [1]: 0; GGT Increase - Number of Reports [1]: < 4; LDH Increase - Activity Score [2]: Inactive; LDH Increase - Index Value [2]: 0; LDH Increase - Number of Reports [2]: < 4; Alkaline Phosphatase Increase - Activity Score [3]: Inactive; Alkaline Phosphatase Increase - Index Value [3]: 0; Alkaline Phosphatase Increase - Number of Reports [3]: < 4; Composite Activity - Active [4]: 0; Composite Activity - Marginal [4]: 0; Composite Activity - Score [4]: Inactive; SGOT Increase - Activity Score [5]: Inactive; SGOT Increase - Index Value [5]: 4.6; SGOT Increase - Number of Reports [5]: < 4; SGPT Increase - Activity Score [6]: Inactive; SGPT Increase - Index Value [6]: 4.6; SGPT Increase - Number of Reports [6]: < 4
